In patent publication US11510886B2, “Metformin amino acid compounds and methods of using the same” (Laboratorios Silancs S.A. DE C.V., priority 2016, dated 2022):

Assays:
GPBP = biological target: T1, GPBP (Homo sapiens, UniProt Q9Y5P4); assay type: binding
T1 sequence (Q9Y5P4 1-624): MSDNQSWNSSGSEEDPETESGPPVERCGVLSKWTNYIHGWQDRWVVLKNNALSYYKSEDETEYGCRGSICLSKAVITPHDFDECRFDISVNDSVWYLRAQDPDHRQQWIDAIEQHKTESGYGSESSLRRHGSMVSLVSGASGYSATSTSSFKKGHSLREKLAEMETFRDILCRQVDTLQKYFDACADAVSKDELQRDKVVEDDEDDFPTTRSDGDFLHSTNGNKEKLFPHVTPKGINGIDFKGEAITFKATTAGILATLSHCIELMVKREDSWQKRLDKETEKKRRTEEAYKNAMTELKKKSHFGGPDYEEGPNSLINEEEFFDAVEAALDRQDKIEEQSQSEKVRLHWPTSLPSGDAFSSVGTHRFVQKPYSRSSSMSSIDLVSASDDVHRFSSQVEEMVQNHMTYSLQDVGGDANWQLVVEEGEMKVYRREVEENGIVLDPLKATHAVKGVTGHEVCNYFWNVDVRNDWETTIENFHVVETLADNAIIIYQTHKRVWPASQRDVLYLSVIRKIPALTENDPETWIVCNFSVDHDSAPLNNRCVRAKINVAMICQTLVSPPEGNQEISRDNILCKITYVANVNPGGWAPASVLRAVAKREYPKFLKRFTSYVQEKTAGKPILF
Procedure: GPBP·SLN10n (Equation 2) where
The equation above was represented with the F data obtained at 26° C.

[1] = tested on: RAW264.7 macrophages and L1 adipocytes co-cultures; experiment: Glucose consumption in macrophage and adipocyte co-cultures; assay type: cell-based, Mice; settings: 10 mM, 30 hours (FIG. 80)

metformin lysinate was tested, and the “GPBP fluorescence emission at 370 nm (F370)” value (GPBP) was “steady reduction (extinction)”, the “Ksv (Stern-Volmer constant)” value (GPBP) was 108800 M⁻¹ and the “n (number of SLN10 molecules bound to GPBP)” value (GPBP) was 0.7. For the same substance, the “glucose consumption of co-cultures” value [1] was “stronger”.
